In patent publication US4916214A, “Cationic complexes of technetium-99m” (Amersham International plc., priority 1987, dated 1990):
Like-named read-outs stand apart in the source and are kept apart here.

How the values were obtained:
[1] = Animal biodistribution of 99mTc complexes in guinea pigs; format: in vivo, guinea pig;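 also: Heart, liver and kidney plus urine values are percent of the injected material, background-corrected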
Protocol: (§1) Percentage biodistribution of injected material was calculated (after correction for background) for all organs using the formula: [formula]
(§2) Since only samples of muscle and blood were taken, the percentage in these tissues was calculated assuming blood and muscle to represent 5.8 and 43% of total animal weight respectively using the formula: [formula]
Since only samples of muscle and blood were taken, the percentage in these tissues was calculated assuming blood and muscle to represent 5.8 and 43% of total animal weight respectively using the formula: [formula] where CF= 0.058 for blood

[2] = Animal biodistribution of 99mTc complexes in rats (i.v. injection, organ counting); details: Table VII, nitrosyl complex [Tc(NO)Cl2 L2 ]^- of the ligand, 60 min p.i.
Protocol: (§3) In vivo biodistribution: 0.1 ml Tc^99m prep was injected i.v. into a laterial tail vein of 6 anaesthetised rats.
(§4) At 2 minutes and 60 minutes post-injection, 3 rats were sacrificed by decapitation, bled from the neck and dissected. The following organs were removed at dissection: kidney; bladder(+ urine), lung, liver, spleen, stomach, small intestine, large intestine, brain (weighed), heart (weighed), thyroid and samples of blood (weighed) and muscle (weighed), the residual carcass and the tail (injection site). Subsequently samples were counted in an automatic twin crystal gamma counter.
as §1, §2

[3] = rat, in vivo
Protocol: as §3, §4, §1, §2

[4] = Table VIII, [TcL3 ]^+ complex of the ligand, guinea pigs, 2 min p.i.
[5] = Table VIII, [TcL3 ]^+ complex of the ligand, guinea pigs, 60 min p.i.
[6] = guinea pig, 2 min p.i. in vivo, mean
[7] = guinea pig, 60 min p.i. in vivo, mean

CP(C)CCP(C)C [dmpe, di(dimethylphosphino) ethane, reference compound]
Heart [1, 4]: 0.53 % injected dose
Heart/Blood Counts/Gram ratio [1, 4]: 0.42
Heart/Liver Counts/Gram ratio [1, 4]: 0.30
Heart/Muscle Counts/Gram ratio [1, 4]: 6.11
Liver [1, 4]: 38.0 % injected dose
Heart [1, 5]: 0.38 % injected dose
Heart/Blood Counts/Gram ratio [1, 5]: 3.27
Heart/Liver Counts/Gram ratio [1, 5]: 0.13
Heart/Muscle Counts/Gram ratio [1, 5]: 4.12
Liver [1, 5]: 36.8 % injected dose
Heart/Liver Counts/Gram ratio [2]: 1.52

COCC(COC)(CP(C)C)CP(C)C.COCC(COC)(CP(C)C)CP(C)C.O=[N][99Tc+][Cl].[Cl-] [Example 19]
Blood [1, 6]: 3.77 % injected dose/organ
Heart [1, 6]: 1.36 % injected dose/organ
Heart/Blood Counts/Gram ratio [1, 6]: 8.66
Heart/Liver Counts/Gram ratio [1, 6]: 2.20
Heart/Lung Counts/Gram ratio [1, 6]: 0.9
Heart/Muscle Counts/Gram ratio [1, 6]: 4.65
Kidney + Urine [1, 6]: 15.5 % injected dose/organ
Liver [1, 6]: 11.0 % injected dose/organ
Liver + GI [1, 6]: 35.0 % injected dose/organ
Lung [1, 6]: 1.57 % injected dose/organ
Muscle [1, 6]: 38.6 % injected dose/organ
Blood [1, 7]: 0.48 % injected dose/organ
Heart [1, 7]: 1.05 % injected dose/organ
Heart/Blood Counts/Gram ratio [1, 7]: 49.6
Heart/Liver Counts/Gram ratio [1, 7]: 17.5
Heart/Lung Counts/Gram ratio [1, 7]: 2.0
Heart/Muscle Counts/Gram ratio [1, 7]: 4.77
Kidney + Urine [1, 7]: 18.1 % injected dose/organ
Liver [1, 7]: 0.92 % injected dose/organ
Liver + GI [1, 7]: 45.9 % injected dose/organ
Lung [1, 7]: 0.52 % injected dose/organ
Muscle [1, 7]: 30.6 % injected dose/organ
Blood ([3]; 2 min): 2.05 % injected dose/organ
Heart ([3]; 2 min): 1.56 % injected dose/organ
Heart/Blood Counts/Gram ratio ([3]; 2 min): 10.9
Heart/Liver Counts/Gram ratio ([3]; 2 min): 1.56
Heart/Lung Counts/Gram ratio ([3]; 2 min): 1.8
Heart/Muscle Counts/Gram ratio ([3]; 2 min): 4.57
Kidney + Urine ([3]; 2 min): 8.94 % injected dose/organ
Liver ([3]; 2 min): 13.2 % injected dose/organ
Liver + GI ([3]; 2 min): 35.3 % injected dose/organ
Lung ([3]; 2 min): 1.33 % injected dose/organ
Muscle ([3]; 2 min): 36.2 % injected dose/organ
Blood ([3]; 60 min): 0.14 % injected dose/organ
Heart ([3]; 60 min): 1.47 % injected dose/organ
Heart/Blood Counts/Gram ratio ([3]; 60 min): 192
Heart/Liver Counts/Gram ratio ([3]; 60 min): 17.2
Heart/Lung Counts/Gram ratio ([3]; 60 min): 3.6
Heart/Muscle Counts/Gram ratio ([3]; 60 min): 5.6
Kidney + Urine ([3]; 60 min): 11.0 % injected dose/organ
Liver ([3]; 60 min): 1.03 % injected dose/organ
Liver + GI ([3]; 60 min): 45.5 % injected dose/organ
Lung ([3]; 60 min): 0.68 % injected dose/organ
Muscle ([3]; 60 min): 28.2 % injected dose/organ
